Experimental data taken from patent US20070049564A1 (Wyeth, priority 2005, published 2007).
≈ marks a conversion by molar mass, not a printed value. Read-outs that look alike come from different tables or passages of the source.

Legend:
E. coli GC 2231 = experiment: MIC, broth microdilution; details: Escherichia coli, GC2231, E. coli GC 2231
S. epidermidis GC 4935 = experiment: MIC, broth microdilution; details: Staphylococcus epidermidis, GC4935, S. epidermidis GC 4935
P. aeruginosa GC 2214 = experiment: MIC, broth microdilution; details: Pseudomonas aeruginosa, GC2214, P. aeruginosa GC 2214
S. pneumoniae+ GC 4465 = experiment: MIC, broth microdilution; details: Streptococcus pneumoniae, S. pneumoniae+ GC 4465
Staph. aureus Smith = experiment: In vivo activity (oral, iv; ED50) against Staph. aureus Smith in mice
Experimental: Representative examples of compounds of Formula I were tested for the oral efficacy using S. aureus Smith in mice.

E. faecalis GC 2267 = experiment: MIC, broth microdilution; details: Enterococcus faecalis, GC2267, E. faecalis GC 2267
S. aureus GC 1131 = experiment: MIC, broth microdilution; details: Staphylococcus aureus, GC1131, S. aureus GC 1131
E. coli GC 4560 = experiment: MIC, broth microdilution; details: Escherichia coli, GC4560, E. coli GC 4560
E. coli GC 2234 = experiment: MIC, broth microdilution; details: Escherichia coli, GC2234, E. coli GC 2234
E. coli GC 6465 = experiment: MIC, broth microdilution; details: Escherichia coli, GC6465, E. coli GC 6465
E. coli GC 2232 = experiment: MIC, broth microdilution; details: Escherichia coli, GC2232, E. coli GC 2232
E. coli GC 2272 = experiment: MIC, broth microdilution; details: Escherichia coli, GC2272, E. coli GC 2272
S. aureus GC 4536 = experiment: MIC, broth microdilution; details: Staphylococcus aureus, GC4536, S. aureus GC 4536
E. coli GC 2203 = experiment: MIC, broth microdilution; details: Escherichia coli, GC2203, E. coli GC 2203
S. aureus GC 2216 = experiment: MIC, broth microdilution; details: Staphylococcus aureus, GC2216, S. aureus GC 2216
S. aureus GC 6467 = experiment: MIC, broth microdilution; details: Staphylococcus aureus, GC6467, S. aureus GC 6467
E. faecalis GC 2242 = experiment: MIC, broth microdilution; details: Enterococcus faecalis, GC2242, E. faecalis GC 2242
S. pneumoniae* GC 4465 = experiment: MIC, broth microdilution; details: Streptococcus pneumoniae, S. pneumoniae* GC 4465
E. coli GC 4559 = experiment: MIC, broth microdilution; details: Escherichia coli, GC4559, E. coli GC 4559
S. aureus GC 6466 = experiment: MIC, broth microdilution; details: Staphylococcus aureus, GC6466, S. aureus GC 6466
[1] = Staphylococcus aureus, in Mus musculus, po, read-out: ED50 Staph Smith SOD
[2] = iv, read-out: ED50 Staph Smith SIV

SMILES | MIC (E. coli GC 2231; Mouse Serum pre-incubation) | MIC (E. coli GC 2231; Water pre-incubation) | MIC (S. epidermidis GC 4935; Mouse Serum pre-incubation) | MIC (S. epidermidis GC 4935; Water pre-incubation) | MIC (P. aeruginosa GC 2214; Mouse Serum pre-incubation) | MIC (P. aeruginosa GC 2214; Water pre-incubation) | MIC (S. pneumoniae+ GC 4465; Mouse Serum pre-incubation) | MIC (S. pneumoniae+ GC 4465; Water pre-incubation) | ED50 (Staph. aureus Smith; [1]) | ED50 (Staph. aureus Smith; [2]) | MIC (E. faecalis GC 2267; Mouse Serum pre-incubation) | MIC (E. faecalis GC 2267; Water pre-incubation) | MIC (S. aureus GC 1131; Mouse Serum pre-incubation) | MIC (S. aureus GC 1131; Water pre-incubation) | MIC (E. coli GC 4560; Mouse Serum pre-incubation) | MIC (E. coli GC 4560; Water pre-incubation) | MIC (E. coli GC 2234; Mouse Serum pre-incubation) | MIC (E. coli GC 2234; Water pre-incubation) | MIC (E. coli GC 6465; Mouse Serum pre-incubation) | MIC (E. coli GC 6465; Water pre-incubation) | further results
CCCCN(CC(=O)Nc1cc(N(C)C)c2c(c1O)C(=O)C1=C(O)[C@]3(O)C(=O)C(C(N)=O)=C(O)[C@@H](N(C)C)[C@@H]3C[C@@H]1C2)C(=O)OCOC(=O)Cc1ccccc1 [Example 12, ({[(2-{[(5aR,6aS,7S,10aS)-9-(aminocarbonyl)-4,7-bis(dimethylamino)-1,8,10a,11-tetrahydroxy-10,12-dioxo-5,5a,6,6a,7,10,10a,12-octahydrotetracen-2-yl]amino}-2-oxoethyl)(butyl)amino]carbonyl}oxy)methyl phenylacetate] | 2 µg/mL (≈ 2.57 µM) | 64 µg/mL (≈ 82.3 µM) | 4 µg/mL (≈ 5.14 µM) | 8 µg/mL (≈ 10.3 µM) | 32 µg/mL (≈ 41.1 µM) | > 64 µg/mL | 4 µg/mL (≈ 5.14 µM) | 8 µg/mL (≈ 10.3 µM) | 15 mg/kg | 1 mg/kg | 2 µg/mL (≈ 2.57 µM) | 8 µg/mL (≈ 10.3 µM) | 1 µg/mL (≈ 1.29 µM) | 2 µg/mL (≈ 2.57 µM) | 0.25 µg/mL (≈ 0.321 µM) | 1 µg/mL (≈ 1.29 µM) | 1 µg/mL (≈ 1.29 µM) | 16 µg/mL (≈ 20.6 µM) | 8 µg/mL (≈ 10.3 µM) | > 64 µg/mL | MIC (E. coli GC 2232; Mouse Serum pre-incubation): 0.5 µg/mL (≈ 0.643 µM); MIC (E. coli GC 2232; Water pre-incubation): 32 µg/mL (≈ 41.1 µM); MIC (E. coli GC 2272; Mouse Serum pre-incubation): 1 µg/mL (≈ 1.29 µM); MIC (E. coli GC 2272; Water pre-incubation): 16 µg/mL (≈ 20.6 µM); MIC (S. aureus GC 4536; Mouse Serum pre-incubation): 1 µg/mL (≈ 1.29 µM); MIC (S. aureus GC 4536; Water pre-incubation): 2 µg/mL (≈ 2.57 µM); MIC (E. coli GC 2203; Mouse Serum pre-incubation): 1 µg/mL (≈ 1.29 µM); MIC (E. coli GC 2203; Water pre-incubation): 32 µg/mL (≈ 41.1 µM); MIC (S. aureus GC 2216; Mouse Serum pre-incubation): 1 µg/mL (≈ 1.29 µM); MIC (S. aureus GC 2216; Water pre-incubation): 4 µg/mL (≈ 5.14 µM); MIC (S. aureus GC 6467; Mouse Serum pre-incubation): 4 µg/mL (≈ 5.14 µM); MIC (S. aureus GC 6467; Water pre-incubation): 16 µg/mL (≈ 20.6 µM); MIC (E. faecalis GC 2242; Mouse Serum pre-incubation): 2 µg/mL (≈ 2.57 µM); MIC (E. faecalis GC 2242; Water pre-incubation): 4 µg/mL (≈ 5.14 µM); MIC (S. pneumoniae* GC 4465; Mouse Serum pre-incubation): < 0.06 µg/mL; MIC (S. pneumoniae* GC 4465; Water pre-incubation): 0.12 µg/mL (≈ 0.154 µM); MIC (E. coli GC 4559; Mouse Serum pre-incubation): 1 µg/mL (≈ 1.29 µM); MIC (E. coli GC 4559; Water pre-incubation): 64 µg/mL (≈ 82.3 µM); MIC (S. aureus GC 6466; Mouse Serum pre-incubation): 0.5 µg/mL (≈ 0.643 µM); MIC (S. aureus GC 6466; Water pre-incubation): 1 µg/mL (≈ 1.29 µM)
CCCN(CC(=O)Nc1cc(N(C)C)c2c(c1O)C(=O)C1=C(O)[C@]3(O)C(=O)C(C(N)=O)=C(O)[C@@H](N(C)C)[C@@H]3C[C@@H]1C2)C(=O)OCOC(=O)c1ccc(F)cc1 [Example 8, ({[(2-{[(5aR,6aS,7S,10aS)-9-(aminocarbonyl)-4,7-bis(dimethylamino)-1,8,10a,11-tetrahydroxy-10,12-dioxo-5,5a,6,6a,7,10,10a,12-octahydrotetracen-2-yl]amino}-2-oxoethyl)(propyl)amino]carbonyl}oxy)methyl 4-fluorobenzoate] | 2 µg/mL (≈ 2.6 µM) | > 64 µg/mL | 2 µg/mL (≈ 2.6 µM) | 8 µg/mL (≈ 10.4 µM) | 32 µg/mL (≈ 41.7 µM) | > 64 µg/mL | 1 µg/mL (≈ 1.3 µM) | 4 µg/mL (≈ 5.21 µM) | 16.6 mg/kg | 0.48 mg/kg | 2 µg/mL (≈ 2.6 µM) | 8 µg/mL (≈ 10.4 µM) | 1 µg/mL (≈ 1.3 µM) | 2 µg/mL (≈ 2.6 µM) | 0.5 µg/mL (≈ 0.651 µM) | 4 µg/mL (≈ 5.21 µM) | 1 µg/mL (≈ 1.3 µM) | 32 µg/mL (≈ 41.7 µM) | 8 µg/mL (≈ 10.4 µM) | > 64 µg/mL | MIC (E. coli GC 2232; Mouse Serum pre-incubation): 1 µg/mL (≈ 1.3 µM); MIC (E. coli GC 2232; Water pre-incubation): 32 µg/mL (≈ 41.7 µM); MIC (E. coli GC 2272; Mouse Serum pre-incubation): 1 µg/mL (≈ 1.3 µM); MIC (E. coli GC 2272; Water pre-incubation): 32 µg/mL (≈ 41.7 µM); MIC (S. aureus GC 4536; Mouse Serum pre-incubation): 0.5 µg/mL (≈ 0.651 µM); MIC (S. aureus GC 4536; Water pre-incubation): 2 µg/mL (≈ 2.6 µM); MIC (E. coli GC 2203; Mouse Serum pre-incubation): 1 µg/mL (≈ 1.3 µM); MIC (E. coli GC 2203; Water pre-incubation): 32 µg/mL (≈ 41.7 µM); MIC (S. aureus GC 2216; Mouse Serum pre-incubation): 0.5 µg/mL (≈ 0.651 µM); MIC (S. aureus GC 2216; Water pre-incubation): 4 µg/mL (≈ 5.21 µM); MIC (S. aureus GC 6467; Mouse Serum pre-incubation): 4 µg/mL (≈ 5.21 µM); MIC (S. aureus GC 6467; Water pre-incubation): 8 µg/mL (≈ 10.4 µM); MIC (E. faecalis GC 2242; Mouse Serum pre-incubation): 1 µg/mL (≈ 1.3 µM); MIC (E. faecalis GC 2242; Water pre-incubation): 4 µg/mL (≈ 5.21 µM); MIC (S. pneumoniae* GC 4465; Mouse Serum pre-incubation): < 0.06 µg/mL; MIC (S. pneumoniae* GC 4465; Water pre-incubation): 0.25 µg/mL (≈ 0.326 µM); MIC (E. coli GC 4559; Mouse Serum pre-incubation): 1 µg/mL (≈ 1.3 µM); MIC (E. coli GC 4559; Water pre-incubation): 64 µg/mL (≈ 83.4 µM); MIC (S. aureus GC 6466; Mouse Serum pre-incubation): 0.5 µg/mL (≈ 0.651 µM); MIC (S. aureus GC 6466; Water pre-incubation): 1 µg/mL (≈ 1.3 µM)
